According to patent publication US5235045A, “Non-azo naphthalimide dyes” (priority 1992, dated 1993):
Like-named read-outs stand apart in the source and are kept apart here.

Assays:
H9 cells [1] = assay: Dye-mediated light kill of H9 cells (trypan blue); format: cell-based; conditions: Homo sapiens, 10% FCS medium, read-out: Percent Viability
Description: Photoinduced killing of H9 cells with Compound 1b as the mediator of photochemical toxicity were carried out according to the following protocol:
Compound 1b was added to the H9 cells (5×10^5 /ml) in medium or 100% human plasma to give dye concentrations of 0, 25 and 100 μM (1 control, 2 duplicates of both non-azo dye samples). Two 2-ml aliquots of each of the duplicated dye samples was irradiated with 10J/cm^2 total energy of 450±35 nm wavelength light in a sealed 3-ml test tube. Immediately after irradiation, the cells were centrifuged at 450×g for 10 minutes, and the pellets resuspended in the original volume of fresh RPMI-1640+10% FCS+gentamycin. The cell suspensions were transferred to a 12-well TC plate and placed in a 37° C. 5% CO2 incubator. Cell viability counts (trypan blue) were carried out at 4, 24, 48, and 72 hours post irradiation. The results of these experiments are summarized in Tables 7 (medium) and 8 (100% human plasma).
Photoinduced killing of H9 cells with Compound VII as the mediator of photochemical toxicity were carried out in 10% FCS medium according to the same general protocol using concentrations of the dye at 0, 5, 25 and 100 μM., and irradiating at 420±5 nm at 10J/cm^2 total energy.

H9 cells [2] = assay: Effects on H9 cells of Ed6Br with prior activation by 420 nm light (Trypan Blue); format: cell-based; conditions: Homo sapiens, H9, 24 h, read-out: % Viable Cells
[3] = system: Herpes simplex virus type 1; assay: Effect of Ed6Br and light on aqueous suspensions of HSV-1 (plaque assay); format: cell-based, MacIntyre strain
[4] = Binding kinetics of dye to synthetic vesicles (fluorescence increase)
Description: All of the vehicles used in these studies were prepared to have a final lipid, egg lecithin+cholesterol concentration of 10 mg/ml. Cholesterol concentrations were varied between 0 and 45 mol % by varying the lipid composition from which the vesicles were produced. The subject dyes were added in 10% aqueous isopropyl alcohol solutions to vesicle suspensions in water. The dyes are non-fluorescent in 10% aqueous isopropy alcohol, but are highly fluorescent in vesicles. The increase in fluorescence was monitored at an excitation wavelength of 460 nm and an emission wavelength of 519 nm. Fluorescence intensity was measured as a function of time, and fit to a standard first-order kinetic plot.

[5] = H9, light or radiation study, 4 h, hν 420±5 nm 10J/cm^2, 4 hours

SMILES: CCCCCCNc1c(Br)cc2c3c(cccc13)C(=O)N(CCCCCC)C2=O [Compound VII, 3-bromo-4-(hexyl)amino-N-hexyl-1,8-naphthalimide]
- viability at 5 µM (H9 cells [1]; H9, 4 h, no hν, 4 hours): 86.5%
- viability at 25 µM (H9 cells [1]; H9, 4 h, no hν, 4 hours (Table 9)): 90%
- viability at 5 µM (H9 cells [1]; [5]): 0%
- viability at 25 µM (H9 cells [1]; [5]): 0%
- viability at 100 µM (H9 cells [1]; H9, light or radiation study, 4 h, 100 μM, hν 420±5 nm 10J/cm^2, 4 hours, light reached only approximately 2 mm): 1.8%
- viability at 100 µM (H9 cells [2]; no previous light activation): 28%
- viability at 100 µM (H9 cells [2]; previous light activation): 0%
- PFU/ml ([3]; 1.25 μM, irradiated 20 J/cm2, 420 nm): 0 PFU/ml
- PFU/ml ([3]; 2.5 μM, irradiated 20 J/cm2, 420 nm): 0 PFU/ml
- PFU/ml ([3]; 5 μM, irradiated 20 J/cm2, 420 nm): 0 PFU/ml
- PFU/ml ([3]; 10 μM, irradiated 20 J/cm2, 420 nm): 0 PFU/ml
- PFU/ml ([3]; .078 μM, irradiated 20 J/cm2, 420 nm): 3.8 × 10^1 PFU/ml
- PFU/ml ([3]; .156 μM, irradiated 20 J/cm2, 420 nm): 1.8 × 10^1 PFU/ml
- PFU/ml ([3]; .312 μM, irradiated 20 J/cm2, 420 nm): 7.5 × 10^0 PFU/ml
- PFU/ml ([3]; .625 μM, irradiated 20 J/cm2, 420 nm): 0 PFU/ml
- log reduction at 1.25 µM ([3]; Human alphaherpesvirus 1, light or radiation study, 1.25 μM, irradiated 20 J/cm2, 420 nm, read-out: Log10 Reduction): 5.8
- log reduction at 2.5 µM ([3]; Human alphaherpesvirus 1, light or radiation study, 2.5 μM, irradiated 20 J/cm2, 420 nm, read-out: Log10 Reduction): 5.8
- log reduction at 5 µM ([3]; Human alphaherpesvirus 1, light or radiation study, 5 μM, irradiated 20 J/cm2, 420 nm, read-out: Log10 Reduction): 5.8
- log reduction at 10 µM ([3]; Human alphaherpesvirus 1, light or radiation study, 10 μM, irradiated 20 J/cm2, 420 nm, read-out: Log10 Reduction): 5.8
- log reduction at 0.078 µM ([3]; Human alphaherpesvirus 1, light or radiation study, .078 μM, irradiated 20 J/cm2, 420 nm, read-out: Log10 Reduction): 4.22
- log reduction at 0.156 µM ([3]; Human alphaherpesvirus 1, light or radiation study, .156 μM, irradiated 20 J/cm2, 420 nm, read-out: Log10 Reduction): 4.54
- log reduction at 0.312 µM ([3]; Human alphaherpesvirus 1, light or radiation study, .312 μM, irradiated 20 J/cm2, 420 nm, read-out: Log10 Reduction): 4.92
- log reduction at 0.625 µM ([3]; Human alphaherpesvirus 1, light or radiation study, .625 μM, irradiated 20 J/cm2, 420 nm, read-out: Log10 Reduction): 5.8
- kill of HSV-1 ([3]; as low as 0.078 mM, 420 nm, 20 J/cm2, 2.5% or less of serum proteins): > 99.99%
- rate constant for binding ([4]; 0 mol % cholesterol): 0.814 ± 0.005 × 10^-3 s^-1
- rate constant for binding ([4]; 15 mol % cholesterol): 1.020 ± 0.005 × 10^-3 s^-1
- rate constant for binding ([4]; 30 mol % cholesterol): 1.54 ± 0.02 × 10^-3 s^-1
- rate constant for binding ([4]; 45 mol % cholesterol): 2.75 ± 0.01 × 10^-3 s^-1
